Measured values as given in patent publication US10695334B2, “Heteroaromatic carboxamide derivatives as plasma kallikrein inhibitors” (Boehringer Ingelheim International GmbH, priority 2018, dated 2020).

Experiments:
Type in all cases: biochemical
Human PKK [1] = molecular target: T1, Human PKK (Homo sapiens (Human), UniProt P03952); experiment: Inhibition of PKK, endpoint assay (human PKK); conditions: substrate H-Pro-Phe-Arg-AMC, 1 h room temperature
Method: Subsequently, PPACK II (Calbiochem) was added as a stop solution to achieve a final concentration of 1 μM and fluorescence was measured using an Envision Reader (PerkinElmer) with the wavelength excitation setting of 355 nm and the wavelength emission setting of 460 nm.

[2] = molecular target: PKK in kaolin activated human platelet poor plasma (Homo sapiens (Human), UniProt P03952); experiment: Inhibition of PKK in kaolin activated human PPP; conditions: global fit over 25, 75, 250, 750 μg/mL kaolin
Method: Platelet poor plasma (PPP) obtained from human wholeblood, anticoagulated with Na-Citrat, was incubated with various concentrations of the test compound together with either 25, 75, 250, or 750 μg/mL kaolin in assay buffer for 20 min at 37° C. such that for each kaolin dose used a concentration response was obtained for the test compound.

Human PKK [3] = molecular target: T1, Human PKK; experiment: Inhibition of PKK (Ki), kinetic assay; conditions: 24° C., IC50 corrected for KM
human TK1 = human TK1 (Homo sapiens (Human), UniProt P06870); experiment: Inhibition of TK1 (Ki); conditions: column head prints IC50, text above the table says Ki values
Method in brief: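 Trypsin-activated human TK1 (31.25 nM or 1 U/mL) incubated at 24 °C with 0.1 mM H-Pro-Phe-Arg-AMC and compound in pH 7.8 Tris/NaCl buffer with 0.1% BSA, 1% DMSO; fluorescence read kinetically over 16 min. IC50 from Vmax (2-12 min) four-parameter fit, converted to Ki using substrate KM.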

PKK in kaolin activated human platelet poor plasma, sequence (P03952 391-638): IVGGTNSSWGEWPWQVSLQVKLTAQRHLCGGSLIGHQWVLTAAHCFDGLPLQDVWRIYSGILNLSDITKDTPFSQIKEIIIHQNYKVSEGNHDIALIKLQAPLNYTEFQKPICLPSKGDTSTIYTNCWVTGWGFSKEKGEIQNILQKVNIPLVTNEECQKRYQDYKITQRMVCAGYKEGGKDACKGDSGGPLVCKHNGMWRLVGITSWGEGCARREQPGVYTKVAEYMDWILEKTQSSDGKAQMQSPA
PKK in kaolin activated human platelet poor plasma, sequence (P03952 20-390 partner): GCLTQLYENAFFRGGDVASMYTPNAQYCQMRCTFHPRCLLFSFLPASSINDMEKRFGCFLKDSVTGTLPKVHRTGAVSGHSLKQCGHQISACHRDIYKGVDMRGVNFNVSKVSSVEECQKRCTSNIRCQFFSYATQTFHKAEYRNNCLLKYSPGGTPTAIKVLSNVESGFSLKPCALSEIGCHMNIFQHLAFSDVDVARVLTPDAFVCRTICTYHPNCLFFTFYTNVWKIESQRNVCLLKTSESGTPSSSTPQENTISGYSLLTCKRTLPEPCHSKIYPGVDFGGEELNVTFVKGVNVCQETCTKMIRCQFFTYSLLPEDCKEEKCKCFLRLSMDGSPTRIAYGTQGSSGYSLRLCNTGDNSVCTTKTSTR
T1 sequence (P03952 391-638): as the sequence (P03952 391-638) above
T1 sequence (P03952 20-390 partner): as the sequence (P03952 20-390 partner) above
human TK1, sequence (P06870 25-262): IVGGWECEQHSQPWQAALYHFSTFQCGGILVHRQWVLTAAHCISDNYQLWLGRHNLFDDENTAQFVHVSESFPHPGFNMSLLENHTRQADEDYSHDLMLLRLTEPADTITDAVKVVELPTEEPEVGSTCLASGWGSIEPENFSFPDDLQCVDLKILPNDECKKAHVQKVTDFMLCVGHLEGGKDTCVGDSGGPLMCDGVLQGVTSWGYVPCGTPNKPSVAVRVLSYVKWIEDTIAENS

Row | IC50 (Human PKK [1]) | IC90 [2] | Ki (Human PKK [3]) | IC50 (human TK1) | SMILES
1 | 5 nM | 3140 nM | 6 nM | > 10000 nM | Cc1nc(N2CC3CC3C2)ccc1Cn1cc(C(=O)N[C@@H]2CCc3c2n[nH]c3C)nc1C(F)(F)F (stereo partly drawn) [Example 98, 1-[(6-{3-Azabicyclo[3.1.0]hexan-3-yl}-2-methyl-pyridin-3-yl)methyl]-N-[(6R)-3-methyl-2H,4H,5H,6H-cyclopenta[c]pyrazol-6-yl]-2-(trifluoromethyl)-1H-imidazole-4-carboxamide]
2 | 1 nM | 3090 nM | 2 nM | > 10000 nM | Cc1nc(N2CC3CC3C2)ccc1Cn1cc(C(=O)N[C@@H]2CCc3c(C)n[nH]c32)c(Cl)n1 (stereo partly drawn) [Example 12, 1-[(6-{3-Azabicyclo[3.1.0]hexan-3-yl}-2-methylpyridin-3-yl)methyl]-3-chloro-N-[(6R)-3-methyl-1H,4H,5H,6H-cyclopenta[c]pyrazol-6-yl]-1H-pyrazole-4-carboxamide]
3 | 7 nM | 4980 nM | 2 nM | > 10000 nM | Cc1nc(N2CCC(F)(F)C2)ccc1Cn1cc(C(=O)N[C@@H]2CCc3c2n[nH]c3C)cn1 [Example 37, 1-{[6-(3,3-Difluoropyrrolidin-1-yl)-2-methylpyridin-3-yl]methyl}-N-[(6R)-3-methyl-2H,4H,5H,6H-cyclopenta[c]pyrazol-6-yl]-1H-pyrazole-4-carboxamide]
4 | 2 nM | 781 nM | 1 nM | > 10000 nM | Cc1nc(N2CC3CC3C2)ccc1Cn1cc(C(=O)N[C@@H]2CCc3c2n[nH]c3C)nc1C1CC1 (stereo partly drawn) [Example 96, 1-[(6-{3-Azabicyclo[3.1.0]hexan-3-yl}-2-methyl-pyridin-3-yl)methyl]-2-cyclopropyl-N-[(6R)-3-methyl-2H,4H,5H,6H-cyclopenta[c]pyrazol-6-yl]-1H-imidazole-4-carboxamide]
5 | 4 nM | 2840 nM | 1 nM | > 10000 nM | Cc1nc(N2CCC(C(F)F)C2)ccc1Cn1cc(C(=O)N[C@@H]2CCc3c2n[nH]c3C)cn1 (stereo partly drawn) [Example 46, 1-({6-[3-(Difluoromethyl)pyrrolidin-1-yl]-2-methylpyridin-3-yl}methyl)-N-[(6R)-3-methyl-2H,4H,5H,6H-cyclopenta[c]pyrazol-6-yl]-1H-pyrazole-4-carboxamide]
6 | 1 nM | 5480 nM | 4 nM | > 10000 nM | Cc1nc(N2CC3CC3C2)ccc1Cn1cc(C(=O)N[C@@H]2CCc3c2n[nH]c3C)nc1Cl (stereo partly drawn) [Example 102, 1-[(6-{3-Azabicyclo[3.1.0]hexan-3-yl}-2-methyl-pyridin-3-yl)methyl]-2-chloro-N-[(6R)-3-methyl-2H,4H,5H,6H-cyclopenta[c]pyrazol-6-yl]-1H-imidazole-4-carboxamide]
7 | 2 nM | 2010 nM | 0.9 nM | > 10000 nM | Cc1nc(N2CCC(C)(C)C2)ccc1Cn1cc(C(=O)N[C@@H]2CCc3c2n[nH]c3C)cn1 [Example 35, 1{[6-(3,3-Dimethylpyrrolidin-1-yl)-2-methylpyridin-3-yl]methyl}-N-[(6R)-3-methyl-2H,4H,5H,6H-cyclopenta[c]pyrazol-6-yl]-1H-pyrazole-4-carboxamide]
8 | 5 nM | 1110 nM | 4 nM | > 10000 nM | Cc1nc(N2CC(C)(F)C2)ccc1Cn1cc(C(=O)N[C@@H]2CCc3c2n[nH]c3C)cn1 [Example 77, 1-{[6-(3-Fluoro-3-methylazetidin-1-yl)-2-methylpyridin-3-yl]methyl}-N-[(6R)-3-methyl-2H,4H,5H,6H-cyclopenta[c]pyrazol-6-yl]-1H-pyrazole-4-carboxamide]
9 | 3 nM | 444 nM | 3 nM | > 10000 nM | Cc1[nH]nc2c1CC[C@H]2NC(=O)c1cn(Cc2ccc(N3CC4(CC4)C3)nc2)cn1 [Example 104, 1-[(6-{5-Azaspiro[2.3]hexan-5-yl}pyridin-3-yl)-methyl]-N-[(6R)-3-methyl-2H,4H,5H,6H-cyclo-penta[c]pyrazol-6-yl]-1H-imidazole-4-carboxamide]

Row | SMILES | IC50 (Human PKK [1]) | IC90 [2] | Ki (Human PKK [3]) | IC50 (human TK1)
10 | Cc1nc(N2CC3CC3C2)ccc1Cn1cc(C(=O)N[C@@H]2CCc3c(C)n[nH]c32)cn1 (stereo partly drawn) [Example 3, 1-[(6-{3-Azabicyclo[3.1.0]hexan-3-yl}-2-methylpyridin-3-yl)methyl]-N-[(6R)-3-methyl-1H,4H,5H,6H-cyclopenta[c]pyrazol-6-yl]-1H-pyrazole-4-carboxamide] | 0.8 nM | 679 nM | 0.5 nM | > 10000 nM
11 | Cc1nc(N2C[C@@H]3[C@H](CO)[C@@H]3C2)ccc1Cn1cnc(C(=O)N[C@@H]2CCc3c2n[nH]c3C)c1 (stereo in doubt) [Example 99, 1-({6-[(1R,5S,6S)-6-(Hydroxymethyl)-3-aza-bicyclo[3.1.0]hexan-3-yl]-2-methylpyridin-3-yl}-methyl)-N-[(6R)-3-methyl-2H,4H,5H,6H-cyclo-penta[c]pyrazol-6-yl]-1H-imidazole-4-carboxamide] | 1 nM | 388 nM | 1 nM | > 10000 nM
